Source: patent publication US11713335B2, “Aminocoumarin compounds and methods of their use” (President and Fellows of Harvard College, priority 2018, dated 2023)
In brackets after ≈: the same amount, converted by molar mass. Read-outs that look alike come from different tables or passages of the source.

What was measured:
Format in all cases: cell-based
S. aureus MW2 = experiment: Minimal inhibitory concentration, S. aureus MW2; conditions: read-out: MIC (μM) S. aureus MW2 (MRSA)
Method: (§1) General Procedure for Determination of Minimal Inhibitory Concentrations
(§2) Overnight cultures (5 mL) of bacterial strains were grown in LB media or TSA media (for S. aureus) at 37° C. and with shaking at 220 rpm until saturation. The overnight culture was diluted serially 1:100 (50 μL in 5 mL sterile media) and then 1:100 (250 μL in 25 mL sterile media). The 25 mL of diluted culture was then dispensed to a sterile 96 well plate (Corning #3370). 198 μL of culture were dispensed into row A and 100 μL of this culture were dispensed into rows B-H. Aminocoumarin compound (DMSO stock) were added to the first row and then the row was mixed by pipetting. 100 μL of culture from row A were transferred to row B and the serial dilution continued until the final 100 μL from row H were discarded. The plate was incubated without shaking in a 37° C. for 16 hours and then read by visible light spectrophotometer (Molecular Devices) at 600 nm. The minimal inhibitory concentration (MIC) was determined as the lowest concentration of compound concentration that inhibited the growth of bacteria.
(§3) The compounds of the invention were assessed for activities against the pathogens S. aureus RN4220 and MW2, E. cloacae 13047, A. baumannii 19606, K. pneumoniae 700721, E. coli MC4100, 25922. All activities are reported in micromolar (uM) and are 16 hour minimal inhibitory concentrations at 37° C. The assay is detailed in Example 11 and is titled “General Procedure for Determination of Minimal Inhibitory Concentrations.”

E. coli 25922 = experiment: Minimal inhibitory concentration, E. coli 25922; conditions: read-out: MIC (μM) E. coli 25922
Method: as §1, §2, §3

S. aureus RN4220 = experiment: Minimal inhibitory concentration, S. aureus RN4220; conditions: read-out: MIC (μM) S. aureus RN4220
Method: as §1, §2, §3

K. pneumoniae 700721 = experiment: Minimal inhibitory concentration, K. pneumoniae 700721; conditions: read-out: MIC (μM) K. pneumoniae 700721
Method: as §1, §2, §3

E. cloacae 13047 = experiment: Minimal inhibitory concentration, E. cloacae 13047; conditions: read-out: MIC (μM) E. cloacae 13047
Method: as §1, §2, §3

E. coli MC4100 = experiment: Minimal inhibitory concentration, E. coli MC4100; conditions: read-out: MIC (μM) E. coli MC4100 ara+
Method: as §1, §2, §3

A. baumannii 19606 = experiment: Minimal inhibitory concentration, A. baumannii 19606; conditions: read-out: MIC (μM) A. baumannii 19606
Method: as §1, §2, §3

[1] = 16 hour minimal inhibitory concentration at 37° C.
[2] = Staphylococcus aureus, MRSA, 16 h, 16 hour minimal inhibitory concentration at 37° C.
[3] = Escherichia coli, 25922, 16 h, 16 hour minimal inhibitory concentration at 37° C.
[4] = Staphylococcus aureus, RN4220, 16 h, 16 hour minimal inhibitory concentration at 37° C.
[5] = Klebsiella pneumoniae, 700721, 16 hour minimal inhibitory concentration at 37° C.
[6] = Enterobacter cloacae, 13047, 16 hour minimal inhibitory concentration at 37° C.
[7] = Escherichia coli, MC4100, 16 h, 16 hour minimal inhibitory concentration at 37° C.
[8] = Acinetobacter baumannii, 19606, 16 h, 16 hour minimal inhibitory concentration at 37° C.
[9] = Staphylococcus aureus, MRSA, 16 h
[10] = Staphylococcus aureus, RN4220, 16 h
[11] = Klebsiella pneumoniae, 700721, 16 h
[12] = Enterobacter cloacae, 13047, 16 h
[13] = Acinetobacter baumannii, 19606, 16 h

Row | Compound | MIC (S. aureus MW2; [2]) [µM] | MIC (E. coli 25922; [3]) [µM] | MIC (S. aureus RN4220; [4]) [µM] | MIC (K. pneumoniae 700721; [5]) [µM] | MIC (E. cloacae 13047; [6]) [µM] | MIC (E. coli MC4100; [7]) [µM] | MIC (A. baumannii 19606; [8]) [µM] | other results
1 | CO[C@@H]1[C@@H](O)[C@@H](OC(=O)c2cccn2C)[C@H](Oc2ccc3c(O)c(NC(=O)c4ccc(O)c(CC=C(C)C)c4)c(=O)oc3c2C)OC1(C)C [Compound 114] | – | – | – | – | – | – | – | MIC (S. aureus MW2; [1]): 74 µM (≈ 50.1 µg/mL); MIC (E. coli 25922; [1]): >200 µM; MIC (S. aureus RN4220; [1]): 74 µM (≈ 50.1 µg/mL); MIC (K. pneumoniae 700721; [1]): >100 µM; MIC (E. cloacae 13047; [1]): >100 µM; MIC (E. coli MC4100; [1]): >200 µM; MIC (A. baumannii 19606; [1]): >50 µM
2 | CO[C@@H]1[C@@H](OC(N)=O)[C@@H](O)[C@H](Oc2ccc3c(O)c(NC(=O)c4cc(C)oc4C)c(=O)oc3c2C)OC1(C)C [Compound 200] | 91 (≈ 49.7 µg/mL) | > 200 | 91 (≈ 49.7 µg/mL) | > 100 | > 100 | > 200 | > 50 | –
3 | CO[C@@H]1[C@@H](OC(N)=O)[C@@H](O)[C@H](Oc2ccc3c(O)c(NC(=O)c4cccc(-c5cc[nH]n5)c4)c(=O)oc3c2C)OC1(C)C [Compound 201] | 42 (≈ 25 µg/mL) | > 200 | 42 (≈ 25 µg/mL) | > 100 | > 100 | > 200 | > 50 | –
4 | CO[C@@H]1[C@@H](OC(N)=O)[C@@H](O)[C@H](Oc2ccc3c(O)c(NS(=O)(=O)c4cccc(-c5ccccc5)c4)c(=O)oc3c2C)OC1(C)C [Compound 202] | > 100 | > 200 | > 100 | > 100 | > 100 | > 200 | > 50 | –
5 | CO[C@@H]1[C@@H](OC(N)=O)[C@@H](O)[C@H](Oc2ccc3c(O)c(NC(=O)c4ccc(O)c(C/C=C/CCC(=O)O)c4)c(=O)oc3c2C)OC1(C)C [Compound 203] | > 100 | > 200 | > 100 | > 100 | > 100 | > 200 | > 50 | –
6 | CO[C@@H]1[C@@H](OC(N)=O)[C@@H](O)[C@H](Oc2ccc3c(O)c(NC(=O)c4ccc(Br)cc4)c(=O)oc3c2C)OC1(C)C [Compound 204] | 82 (≈ 49.8 µg/mL) | > 200 | 82 (≈ 49.8 µg/mL) | > 100 | > 100 | > 200 | > 50 | –
7 | CO[C@@H]1[C@@H](OC(=O)Nc2ccccc2)[C@@H](O)[C@H](Oc2ccc3c(O)c(NC(=O)c4cccc(-c5ccc6ccccc6c5)c4)c(=O)oc3c2C)OC1(C)C [Compound 205] | 9 (≈ 6.58 µg/mL) | > 200 | 9 (≈ 6.58 µg/mL) | > 100 | > 100 | > 200 | > 50 | –
8 | CO[C@@H]1[C@@H](OC(N)=O)[C@@H](O)[C@H](Oc2ccc3c(O)c(NC(=O)c4cccc(CN)c4)c(=O)oc3c2C)OC1(C)C [Compound 206] | > 100 | > 200 | > 100 | > 100 | > 100 | > 200 | > 50 | –
9 | CO[C@@H]1[C@@H](OC(N)=O)[C@@H](O)[C@H](Oc2ccc3c(O)c(NC(=O)c4ccc(CN)cc4)c(=O)oc3c2C)OC1(C)C [Compound 207] | > 100 | > 200 | > 100 | > 100 | > 100 | > 200 | > 50 | –
10 | CO[C@@H]1[C@H]2OP(=O)(c3ccccc3)O[C@H]2[C@H](Oc2ccc3c(O)c(NC(=O)c4ccc(O)c(CC=C(C)C)c4)c(=O)oc3c2C)OC1(C)C (stereo partly shown) [Compound 208] | > 100 | > 200 | > 100 | > 100 | > 100 | > 200 | > 50 | –
11 | CO[C@@H]1[C@@H](OC(N)=O)[C@@H](O)[C@H](Oc2ccc3c(O)c(NC(=O)OC(C)(C)C)c(=O)oc3c2C)OC1(C)C [Compound 209] | > 100 | > 200 | > 100 | > 100 | > 100 | > 200 | > 50 | –
12 | CO[C@@H]1[C@@H](OC(=O)c2ccc(C)n2-c2ccccc2)[C@@H](O)[C@H](Oc2ccc3c(O)c(NC(=O)c4ccc(O)c(CC=C(C)C)c4)c(=O)oc3c2C)OC1(C)C [Compound 210] | 33 (≈ 24.8 µg/mL) | > 200 | 33 (≈ 24.8 µg/mL) | > 100 | > 100 | > 200 | > 50 | –
13 | CO[C@@H]1[C@@H](OC(N)=O)[C@@H](O)[C@H](Oc2ccc3c(OCc4ccccc4)c(NC(=O)c4ccc(O)c(CC=C(C)C)c4)c(=O)oc3c2C)OC1(C)C [Compound 211] | > 100 | > 200 | > 100 | > 100 | > 100 | > 200 | > 50 | –
14 | C=CCOc1c(NC(=O)c2ccc(O)c(CC=C(C)C)c2)c(=O)oc2c(C)c(O[C@@H]3OC(C)(C)[C@H](OC)[C@@H](OC(N)=O)[C@H]3O)ccc12 [Compound 212] | > 100 | > 200 | > 100 | > 100 | > 100 | > 200 | > 50 | –
15 | CO[C@@H]1[C@@H](OC(=O)c2cc(C)c(C)[nH]2)[C@@H](O)[C@H](Oc2ccc3c(O)c(NC(=O)c4ccc(O)c(CC=C(C)C)c4)c(=O)oc3c2C)OC1(C)C [Compound 213] | – | – | – | – | – | – | – | MIC (S. aureus MW2; [9]): 0.45 µM (≈ 0.311 µg/mL); MIC (E. coli 25922; Escherichia coli, 25922, 16 h): > 200 µM; MIC (S. aureus RN4220; [10]): 1.8 µM (≈ 1.24 µg/mL); MIC (K. pneumoniae 700721; [11]): > 100 µM; MIC (E. cloacae 13047; [12]): > 100 µM; MIC (E. coli MC4100; Escherichia coli, MC4100, 16 h): > 200 µM; MIC (A. baumannii 19606; [13]): 4.5 µM (≈ 3.11 µg/mL)
16 | CO[C@@H]1[C@@H](O)[C@@H](OC(=O)c2cc(C)c(C)[nH]2)[C@H](Oc2ccc3c(O)c(NC(=O)c4ccc(O)c(CC=C(C)C)c4)c(=O)oc3c2C)OC1(C)C [Compound 214] | – | – | – | – | – | – | – | MIC (S. aureus MW2; [9]): 5 µM (≈ 3.45 µg/mL); MIC (E. coli 25922; Escherichia coli, 25922, 16 h): > 200 µM; MIC (S. aureus RN4220; [10]): 5 µM (≈ 3.45 µg/mL); MIC (K. pneumoniae 700721; [11]): > 100 µM; MIC (E. cloacae 13047; [12]): > 100 µM; MIC (E. coli MC4100; Escherichia coli, MC4100, 16 h): > 200 µM; MIC (A. baumannii 19606; [13]): > 50 µM
